Drawing on PubChem BioAssay AID248 (DTP/NCI, 2004), this text covers T/C for 22 molecules.

For this experiment, the system named is L1210 leukemia ip in BDF1 mice, survival T/C. The experiment in a line: NCI In Vivo Anticancer Drug Screen. Data for tumor model L1210 Leukemia (intraperitoneal) in B6D2F1 (BDF1) mice. The note with it: endpoint: mean survival time, higher = longer survival. Summed up:
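Transplanted-tumor mice were given test agent; controls received vehicle only. Survival readings from the two groups were divided (treated over control).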

Where [1] appears, read: dose: 100.0 mg/kg/injection, schedule: Q01DX009 (ip), vehicle: Klucel (hydroxypropylcellulose) (HPC).
Where [2] appears, read: dose: 100.0 mg/kg/injection, schedule: Q04DX003 (ip), vehicle: Klucel (hydroxypropylcellulose) (HPC).
The mark [3] stands for this setting: dose: 200.0 mg/kg/injection, schedule: Q01DX009 (ip), vehicle: Klucel (hydroxypropylcellulose) (HPC).
[4] abbreviates: dose: 200.0 mg/kg/injection, schedule: Q04DX003 (ip), vehicle: Klucel (hydroxypropylcellulose) (HPC).
[5] abbreviates: dose: 400.0 mg/kg/injection, schedule: Q01DX009 (ip), vehicle: Klucel (hydroxypropylcellulose) (HPC).
[6] abbreviates: dose: 400.0 mg/kg/injection, schedule: Q04DX003 (ip), vehicle: Klucel (hydroxypropylcellulose) (HPC).
The mark [7] stands for this setting: dose: 100.0 mg/kg/injection, schedule: Q01DX001 (ip), vehicle: saline.
Setting [8] is: dose: 200.0 mg/kg/injection, schedule: Q01DX001 (ip), vehicle: saline.
Setting [9] is: dose: 100.0 mg/kg/injection, schedule: Q04DX002 (ip), vehicle: Klucel (hydroxypropylcellulose) (HPC).
Setting [10] is: dose: 200.0 mg/kg/injection, schedule: Q04DX002 (ip), vehicle: Klucel (hydroxypropylcellulose) (HPC).
[11] abbreviates: dose: 400.0 mg/kg/injection, schedule: Q04DX002 (ip), vehicle: Klucel (hydroxypropylcellulose) (HPC).
Where [12] appears, read: dose: 100.0 mg/kg/injection, schedule: Q04DX003 (ip), vehicle: saline with Tween-80.
Setting [13] is: dose: 200.0 mg/kg/injection, schedule: Q04DX003 (ip), vehicle: saline with Tween-80.
[14] abbreviates: dose: 400.0 mg/kg/injection, schedule: Q04DX003 (ip), vehicle: saline with Tween-80.
The mark [15] stands for this setting: dose: 100.0 mg/kg/injection, schedule: Q01DX001 (ip), vehicle: carboxymethylcellulose (CMC).
Setting [16] is: dose: 400.0 mg/kg/injection, schedule: Q01DX001 (ip), vehicle: carboxymethylcellulose (CMC).
[17] abbreviates: dose: 400.0 mg/kg/injection, schedule: Q01DX001 (ip), vehicle: saline.

Molecules are shown by their SMILES. Where “and” joins values, the source holds several entries; their conditions need not be identical. Equal entries are not always repeated. Inconclusive results and toxic doses are left out.

As to `CC1c2c(-c3ccccc3)oc(-c3ccccc3)c2C(C)C(Br)C1Br` (centres undefined), the T/C reads like this: under setting [1], 121 % of control; under setting [2], 103 % of control; under setting [3], 104 % of control; under setting [4], 90 % of control; under setting [5], 109 % of control; under setting [6], 92 % of control.

Turning to `Cc1c(O)cc(O)cc1O`, the T/C under setting [7] was 96 % of control and the T/C under setting [8] is 98 % of control.

Consider `CC(=O)Nc1cc2c(cc1Cl)-c1ccccc1C2Br` (centres undefined), for which the T/C is, setting by setting: under setting [2], 96 % of control; under setting [4], 94 % of control; under setting [6], 96 % of control.

As to `COc1cc2c(cc1OC)/C(=C\C(=O)N1CCCC1=O)CCC2`, the T/C under setting [1] is 96 % of control; the T/C under setting [2] is 104 % of control; the T/C under setting [3] was 97 % of control; the T/C under setting [4] is 102 % of control; the T/C under setting [5] is 94 % of control; the T/C under setting [6] was 101 % of control.

Turning to `Cc1ccc([N+](=O)[O-])cc1NC(=O)N(CCO)C1CCCCC1`, the T/C is, setting by setting: under setting [9], 101 % of control; under setting [10], 100 % of control; under setting [11], 104 % of control.

Turning to `N#CSCc1cc([N+](=O)[O-])c(CSC#N)c([N+](=O)[O-])c1Cl`, the T/C is 89 % of control (dose: 25.0 mg/kg/injection, schedule: Q01DX009 (ip), vehicle: other); 87 % of control (dose: 100.0 mg/kg/injection, schedule: Q04DX003 (ip), vehicle: carboxymethylcellulose (CMC)); 93 % of control (dose: 200.0 mg/kg/injection, schedule: Q04DX003 (ip), vehicle: carboxymethylcellulose (CMC)).

`OC1CCCCC1Sc1ccccc1` (centres undefined): the T/C runs as follows: (dose: 100.0 mg/kg/injection, schedule: Q04DX002 (ip), vehicle: saline with Tween-80) 117 % of control; (dose: 200.0 mg/kg/injection, schedule: Q04DX002 (ip), vehicle: saline with Tween-80) 111 % of control; (dose: 400.0 mg/kg/injection, schedule: Q04DX002 (ip), vehicle: saline with Tween-80) 105 % of control.

Consider `CC(=O)Nc1cc2c(cc1Cl)-c1ccc(F)cc1C2=O`, for which the T/C under setting [2] was 97 % of control, the T/C under setting [4] is 103 % of control and the T/C under setting [6] was 105 % of control.

Regarding `CCCC1OC(C)C(C)O1` (centres undefined), the T/C runs as follows: (dose: 50.0 mg/kg/injection, schedule: Q01DX009 (ip), vehicle: Klucel (hydroxypropylcellulose) (HPC)) 101 % of control; under setting [1], 101 % of control; under setting [3], 101 % of control.

As to `CCCCCCCCCCCC[N+](C)(C)Cc1ccccc1` (tested in a mixture with another compound), the T/C is 105 % of control (dose: 2.0 mg/kg/injection, schedule: Q01DX015 (ip), vehicle: saline); 94 % of control (dose: 4.0 mg/kg/injection, schedule: Q01DX015 (ip), vehicle: saline); 103 % of control (dose: 8.0 mg/kg/injection, schedule: Q01DX015 (ip), vehicle: saline).

In the case of `CC(C)(C)[N+](Cc1ccccc1)(Cc1ccccc1)Cc1ccccc1`, the T/C reads like this: under setting [12], 100 % of control; under setting [13], 100 % of control; under setting [14], 104 % of control.

With `N=C1N=C(N)C(CCCOc2cc(Cl)ccc2Cl)(CCCOc2cc(Cl)ccc2Cl)C(N)=N1`, the T/C is, setting by setting: under setting [2], 94 % of control; under setting [4], 106 % of control; under setting [6], 87 % of control.

Take `CCNC(=O)c1ccc2c(c1NCC)C(=O)c1ccccc1C2=O`: the T/C by setting is: (dose: 75.0 mg/kg/injection, schedule: Q01DX001 (ip), vehicle: acetone) 98 % of control; (dose: 150.0 mg/kg/injection, schedule: Q01DX001 (ip), vehicle: acetone) 104 % of control; (dose: 300.0 mg/kg/injection, schedule: Q01DX001 (ip), vehicle: acetone) 104 % of control.

In the case of `Cc1cc(Cl)cc(Cl)c1OCC(=O)O`, the T/C was 98 % of control under setting [9], 95 % of control under setting [10] and 95 % of control under setting [11].

For `O=C(C=C(C(F)(F)F)C(F)(F)F)c1ccc([N+](=O)[O-])cc1`, the T/C is, setting by setting: (dose: 3.13 mg/kg/injection, schedule: Q01DX009 (ip), vehicle: other) 105 % of control; (dose: 3.13 mg/kg/injection, schedule: Q04DX003 (ip), vehicle: other) 100 % of control; (dose: 6.25 mg/kg/injection, schedule: Q01DX009 (ip), vehicle: other) 110 % of control; (dose: 6.25 mg/kg/injection, schedule: Q04DX003 (ip), vehicle: other) 95 % of control; (dose: 12.5 mg/kg/injection, schedule: Q04DX003 (ip), vehicle: other) 100 % of control and 103 % of control; (dose: 25.0 mg/kg/injection, schedule: Q04DX003 (ip), vehicle: other) 96 % of control.

Take `Cc1ccc(NC(=O)N(CCBr)N=O)cc1`: the T/C reads like this: (dose: 26.0 mg/kg/injection, schedule: Q01DX015 (ip), vehicle: carboxymethylcellulose (CMC)) 117 % of control; (dose: 39.0 mg/kg/injection, schedule: Q01DX015 (ip), vehicle: carboxymethylcellulose (CMC)) 101 % of control; (dose: 58.0 mg/kg/injection, schedule: Q01DX015 (ip), vehicle: carboxymethylcellulose (CMC)) 101 % of control and 121 % of control; (dose: 88.0 mg/kg/injection, schedule: Q01DX015 (ip), vehicle: carboxymethylcellulose (CMC)) 103 % of control; under setting [15], 122 % of control; (dose: 133.0 mg/kg/injection, schedule: Q01DX015 (ip), vehicle: carboxymethylcellulose (CMC)) 89 % of control. Moreover, the T/C was 168 % of control (dose: 266.0 mg/kg/injection, schedule: Q01DX001 (ip), vehicle: carboxymethylcellulose (CMC)); 150 % of control and 153 % of control under setting [16].

Take `COC(=O)CC1=C(C)CCc2cc3c(cc21)sc1ccccc13`: the T/C reads like this: under setting [7], 94 % of control; under setting [8], 94 % of control; under setting [17], 101 % of control.

In the case of `CC1(C(=O)O)CC1(C)C(=O)O` (centres undefined), the T/C under setting [12] was 103 % of control, the T/C under setting [13] was 96 % of control and the T/C under setting [14] is 92 % of control.

`CNc1ccc(/C=C2\C=Cc3ccccc32)cc1Cl`: the T/C under setting [15] was 97 % of control and the T/C under setting [16] is 92 % of control.

`Cc1sc2ccc3ccccc3c2[n+]1C`: the T/C is, setting by setting: (dose: 50.0 mg/kg/injection, schedule: Q04DX003 (ip), vehicle: Klucel (hydroxypropylcellulose) (HPC)) 105 % of control; (dose: 75.0 mg/kg/injection, schedule: Q01DX001 (ip), vehicle: saline) 103 % of control; under setting [2], 109 % of control; (dose: 150.0 mg/kg/injection, schedule: Q01DX001 (ip), vehicle: saline) 111 % of control.

Regarding `NC(=O)OCC(CO)(c1ccccc1)c1ccccc1`, the T/C by setting is: (dose: 5.0 mg/kg/injection, schedule: Q01DX001 (ip), vehicle: saline) 98 % of control; (dose: 10.0 mg/kg/injection, schedule: Q01DX001 (ip), vehicle: saline) 93 % of control; (dose: 20.0 mg/kg/injection, schedule: Q01DX001 (ip), vehicle: saline) 102 % of control; (dose: 40.0 mg/kg/injection, schedule: Q01DX001 (ip), vehicle: saline) 102 % of control; (dose: 80.0 mg/kg/injection, schedule: Q01DX001 (ip), vehicle: saline) 98 % of control.

On to `O=C(CSc1ccc([N+](=O)[O-])cc1)c1ccc(Br)cc1`, for which the T/C under setting [7] was 87 % of control; the T/C (dose: 100.0 mg/kg/injection, schedule: Q04DX003 (ip), vehicle: saline) is 95 % of control; the T/C under setting [8] is 87 % of control; the T/C (dose: 200.0 mg/kg/injection, schedule: Q04DX003 (ip), vehicle: saline) is 90 % of control; the T/C under setting [17] is 94 % of control; the T/C (dose: 400.0 mg/kg/injection, schedule: Q04DX003 (ip), vehicle: saline) was 90 % of control.
